# Source: US20220260552A1, “Methods to determine the effect of an agent on mammalian embryonic development” (Toxys B.V., priority 2019, published 2022)
# What was measured:
# [1] = test system: mES cells differentiated towards cardiomyocytes; assay: mES cell differentiation towards cardiomyocytes, beating embryoid bodies counted; assay type: cell-based, mouse; conditions: after 13 days of differentiation; FIG. 5B
# Description: FIG. 5: Defective cardiomyocyte differentiation upon teratogenic compound exposure. mES cells were exposed to teratogenic compounds during mES cell differentiation towards cardiomyocytes. The percentage of beating 3D embryoid bodies (examples in A), representing functional cardiomyocytes, was counted. (B) Quantification of beating bodies. Presented values are expressed as percentages of control. Students t-test was used to determine significance. *p<0.05, **p<0.01, ***p<0.001.
# For cardiomyocyte differentiation embryonic bodies were used, formed by hanging drops containing 750 cells in Iscoves's Modified Dulbecco's Medium (IMDM). Prior to hanging drop formation, cells were cultured on gelatine-coated dishes in IMDM supplemented with 20% FBS. Cells were detached with cell dissociation buffer (Gibco). After 3 days, embryonic bodies were transferred to a bacterial plate in differentiation medium (IMDM, 10% serum (unless specified otherwise), PS, NEAA and 2-mercapto ethanol). On day 5, the bodies were transferred to a 48-well plate in differentiation medium containing 2% serum, BMP, Activin A, Chir99021 and Xav939. On day 7 embryonic bodies were exposed to only Xav939 in differentiation medium and on day 11 all growth factors were removed and replaced with differentiation medium. Day 13 was used as endpoint for cardiomyocyte differentiation. On this day, beating bodies were quantified and RNA samples collected.
# [2] = test system: GFP-Ck18 mES reporter cells; assay: mES GFP-Ck18 reporter cell differentiation towards hepatocytes, GFP fluorescence intensity; assay type: cell-based, mouse; conditions: after 21 days of differentiation; normalized to DAPI; FIG. 8
# Method: FIG. 8: Defective hepatocyte differentiation upon teratogenic compound exposure. mES GFP-Ck18 reporter cells were exposed to different teratogenic compounds during mES cell differentiation towards hepatocytes. After 21 days, fluorescence intensity of the hepatocyte specific GFP-Ck18 reporter was measured using microscopy and quantified using Fiji image processing software. GFP intensity was normalized to nuclear intensity measured using DAPI. Presented values are expressed as percentages of control. Student t-test was used for determination of significance. *p<0.05 **p<0.01.*** p<0.001.
# Hepatocyte differentiation was started from a monolayer of mES cells on day −1. On day 0, differentiation medium supplemented with Activin A was added. On day 4, the medium was replaced with liver differentiation medium (DMEM containing 10% serum, PS, NEAA and 2-mercaptoethanol) with aFGF and sodium butyrate. On day 9, the medium was replaced with liver differentiation medium containing HGF. On day 14, cells were exposed to liver differentiation medium containing Dexamethasone and Oncostatin M. From day 17 onwards, liver differentiation medium was refreshed every 3-4 days. Endpoint of differentiation was set on day 21.
# mES cells were seeded on gelatin-coated culture dishes 24 h prior to transfection. […] GFP expression in differentiated cells was determined by flow cytometry.
# [3] = test system: hiPSC cells differentiated towards hepatocytes; assay: hiPSC differentiation towards hepatocytes in presence of compound, biomarker expression by qPCR; assay type: cell-based, human
# Method: The hepatocyte differentiation protocol is based on (Chen et al., 2012, which is incorporated herein by reference). In brief, hiPSC cells were seeded on day −4 in mTESR medium on Matrigel. On day 0 the mTESR medium was replaced with RPMI medium containing B27, Activin A, Chir99021, HGF and PS. On day 3, the cells were refreshed with DMEM medium containing KO serum replacement, Glutamax, NEAA, 2-mercaptoethanol, DMSO and PS. On day 7, the medium was replaced with IMDM medium containing oncostatin M, dexamethasone, ITS, Glutamax, NEAA and PS. On day 10, 14 and 17, cells are refreshed with IMDM medium containing ITS, Glutamax, NEAA and PS. RNA samples were collected on day 0, day 7 and day 21 of differentiation.
# (§1) To assess the effect of potential teratogenic agents, hiPSC were treated with the test material from day 0 until the end of differentiation. When differentiation medium was refreshed, fresh compound was added.
# (§2) Induction of the biomarker expression was compared with the expression of the gene in undifferentiated cells using quantitative real-time PCR (qRT-PCR). At several time points during differentiation, total RNA was isolated using Trizol […]. Complementary DNA was synthesized using oligo(dT) primers and SuperScript […] ReverseTranscriptase (Invitrogen) according to the manufacturer's protocol. Expression of biomarker genes was determined using specific primers (SEQ ID NOs: 68-99, 105 and 106) spanning the exon-exon boundaries of the genes with the PowerUP SYBR Green Master Mix (Applied Biosystems) on a Quantstudio 5 Real-Time PCR System (Applied Biosystems) using ROX as a passive reference. Relative expression was normalized using expression of the GAPDH and HPRT genes.
# [4] = test system: hiPSC cells differentiated towards cardiomyocytes; assay: hiPSC differentiation towards cardiomyocytes in presence of compound, biomarker expression by qPCR; assay type: cell-based, human
# Method: Briefly, on day −4, hiPSC cells were seeded in 24-well plates in mTESR medium on Matrigel. On day 0, the medium was replaced with BEL medium (IMDM, HF12 medium, PFHMII medium, BSA, ITS-X, CD lipids, α-Monothioglycerol, Glutamax, PS and ascorbic acid) containing BMP4, Activin A and Chir99021. At day 3 of differentiation, the medium was refreshed with BEL containing Xav939. On day 7 and 10 of differentiation, the medium was replaced with BEL without growth factors. RNA samples were collected on day 0, day 7 and day 14 of differentiation.
# Induction of the biomarker expression was compared with the expression of the gene in undifferentiated cells using quantitative real-time PCR (qRT-PCR). At several time points during differentiation, total RNA was isolated using Trizol (Qiagen). Complementary DNA was synthesized using oligo(dT) primers and SuperScript VI ReverseTranscriptase (Invitrogen) according to the manufacturer's protocol. […] Relative expression was normalized using expression of the GAPDH and HPRT genes.
# [5] = test system: hiPSC cells differentiated towards neural rosettes; assay: hiPSC differentiation towards neural rosettes in presence of compound, biomarker expression by qPCR; assay type: cell-based, human; conditions: compound added during differentiation, day 0 until end, FIG. 2
# Method: The protocol for neural differentiation is based on (Lippmann, Estevez-Silva, & Ashton, 2014, which is incorporated herein by reference). In short, hiPSC were seeded in mTESR medium on Matrigel on day −1. On day 0, medium was replaced with E6 medium with PS to start differentiation. Medium was refreshed with E6 medium on Day 3 and 7. RNA samples were collected on day 0, day 7 and day 10.
# as §1, §2
SMILES,beating cardiomyocytes (beating embryoid bodies) [1],GFP-Ck18 intensity [2],"biomarker expression during hepatocyte differentiation ([3]; compound present during differentiation, qPCR, T-test vs vehicle control, FIG. 3)",Expression of AFP in hepatocytes [3],Expression of ALB in hepatocytes [3],Expression of MYH6 in cardiomyocytes [4],Expression of PAX6 in neural rosettes [5]
"O=c1[nH]cc(F)c(=O)[nH]1 [5′fluoracil, 5-fluorouracil]",decrease,significantly reduced,–,–,–,–,–
C=CC(N)=O [acrylamide],–,–,no significant reduction,–,–,–,–
O=C1NC(=O)C(c2ccccc2)(c2ccccc2)N1 [diphenylhydantoin],decrease,–,–,–,–,–,–
"CC1=C(/C=C/C(C)=C/C=C/C(C)=C/C(=O)O)C(C)(C)CCC1 [retinoic acid, All-trans retinoic acid]",decrease,significantly reduced,–,reduced,reduced,reduced,reduced
